The supplement of paper PMC8612539
In brackets after ≈: the same amount, converted by molar mass.

System: Pasteurella multocida
Assay: minimum inhibitory concentration (MIC)
Procedure: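 Broth microdilution MIC (Sensititre BOPO7F bovine plate, CLSI methods) of 19 antimicrobials against field isolates of P. multocida, M. haemolytica, H. somni (deep nasopharyngeal swabs) and E. coli, Enterococcus spp. (rectal swabs) from weaned dairy heifers. Incubation 16-24 h at 35 C. MIC is the lowest concentration preventing visible growth. Values with <= or > lie at the tested range limits. Trimethoprim-sulfamethoxazole is given as the trimethoprim component of a 1:19 mixture.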

CCN1CCN(c2cc3c(cc2F)c(=O)c(C(=O)O)cn3C2CC2)CC1 [Enrofloxacin]
Conditions | minimum inhibitory concentration [µg/mL]
isolate (source animal id): 10 | 1 (≈ 2.78 µM)
isolate (source animal id): 11 | 1 (≈ 2.78 µM)
isolate (source animal id): 12 | 1 (≈ 2.78 µM)
isolate (source animal id): 19 | 1 (≈ 2.78 µM)
isolate (source animal id): 23 | 1 (≈ 2.78 µM)
isolate (source animal id): 26 | 2 (≈ 5.56 µM)
isolate (source animal id): 98 | 2 (≈ 5.56 µM)
isolate (source animal id): 104 | 0.5 (≈ 1.39 µM)
isolate (source animal id): 115 | ≤ 0.12
isolate (source animal id): 117 | > 2
isolate (source animal id): 118 | 2 (≈ 5.56 µM)
isolate (source animal id): 121 | ≤ 0.12
isolate (source animal id): 124 | 1 (≈ 2.78 µM)
isolate (source animal id): 125 | 1 (≈ 2.78 µM)
isolate (source animal id): 128 | ≤ 0.12
isolate (source animal id): 131 | > 2
isolate (source animal id): 135 | > 2
isolate (source animal id): 136 | ≤ 0.12
isolate (source animal id): 140 | 1 (≈ 2.78 µM)
isolate (source animal id): 144 | 1 (≈ 2.78 µM)
isolate (source animal id): 146 | 1 (≈ 2.78 µM)
isolate (source animal id): 150 | ≤ 0.12
isolate (source animal id): 151 | ≤ 0.12
isolate (source animal id): 153 | 1 (≈ 2.78 µM)
isolate (source animal id): 155 | 0.5 (≈ 1.39 µM)
isolate (source animal id): 157 | 2 (≈ 5.56 µM)
isolate (source animal id): 160 | ≤ 0.12
isolate (source animal id): 164 | ≤ 0.12
isolate (source animal id): 165 | ≤ 0.12
isolate (source animal id): 167 | ≤ 0.12
isolate (source animal id): 168 | 2 (≈ 5.56 µM)
isolate (source animal id): 169 | ≤ 0.12
isolate (source animal id): 170 | ≤ 0.12
isolate (source animal id): 171 | ≤ 0.12
isolate (source animal id): 172 | ≤ 0.12
isolate (source animal id): 173 | 2 (≈ 5.56 µM)
isolate (source animal id): 174 | ≤ 0.12
isolate (source animal id): 175 | ≤ 0.12
isolate (source animal id): 176 | ≤ 0.12
isolate (source animal id): 177 | ≤ 0.12
isolate (source animal id): 178 | ≤ 0.12
isolate (source animal id): 179 | ≤ 0.12
isolate (source animal id): 182 | ≤ 0.12
isolate (source animal id): 192 | ≤ 0.12
isolate (source animal id): 193 | ≤ 0.12
isolate (source animal id): 195 | ≤ 0.12
isolate (source animal id): 196 | ≤ 0.12
isolate (source animal id): 197 | ≤ 0.12
isolate (source animal id): 198 | 2 (≈ 5.56 µM)
isolate (source animal id): 199 | ≤ 0.12
isolate (source animal id): 200 | ≤ 0.12
isolate (source animal id): 201 | ≤ 0.12
isolate (source animal id): 203 | ≤ 0.12
isolate (source animal id): 204 | ≤ 0.12
isolate (source animal id): 205 | 2 (≈ 5.56 µM)
isolate (source animal id): 206 | ≤ 0.12
isolate (source animal id): 207 | ≤ 0.12
isolate (source animal id): 208 | ≤ 0.12
isolate (source animal id): 209 | ≤ 0.12
isolate (source animal id): 210 | 2 (≈ 5.56 µM)
isolate (source animal id): 213 | ≤ 0.12
isolate (source animal id): 216 | ≤ 0.12
isolate (source animal id): 223 | > 2
isolate (source animal id): 227 | ≤ 0.12
isolate (source animal id): 229 | 2 (≈ 5.56 µM)
isolate (source animal id): 233 | 2 (≈ 5.56 µM)
isolate (source animal id): 234 | 2 (≈ 5.56 µM)
isolate (source animal id): 237 | > 2
isolate (source animal id): 241 | > 2
isolate (source animal id): 245 | > 2
isolate (source animal id): 247 | 0.5 (≈ 1.39 µM)
isolate (source animal id): 250 | 1 (≈ 2.78 µM)
isolate (source animal id): 254 | 2 (≈ 5.56 µM)
isolate (source animal id): 255 | 2 (≈ 5.56 µM)
isolate (source animal id): 258 | ≤ 0.12
isolate (source animal id): 261 | 2 (≈ 5.56 µM)
isolate (source animal id): 262 | 1 (≈ 2.78 µM)
isolate (source animal id): 269 | ≤ 0.12
isolate (source animal id): 270 | 2 (≈ 5.56 µM)
isolate (source animal id): 274 | > 2
isolate (source animal id): 275 | 2 (≈ 5.56 µM)
isolate (source animal id): 276 | > 2
isolate (source animal id): 277 | ≤ 0.12
isolate (source animal id): 278 | 2 (≈ 5.56 µM)
isolate (source animal id): 279 | 0.5 (≈ 1.39 µM)
isolate (source animal id): 280 | 0.5 (≈ 1.39 µM)
isolate (source animal id): 284 | 2 (≈ 5.56 µM)
isolate (source animal id): 285 | 1 (≈ 2.78 µM)
isolate (source animal id): 287 | 2 (≈ 5.56 µM)
isolate (source animal id): 290 | ≤ 0.12
isolate (source animal id): 294 | ≤ 0.12
isolate (source animal id): 295 | ≤ 0.12
isolate (source animal id): 296 | 1 (≈ 2.78 µM)
isolate (source animal id): 307 | ≤ 0.12
isolate (source animal id): 310 | ≤ 0.12
isolate (source animal id): 311 | ≤ 0.12
isolate (source animal id): 312 | 1 (≈ 2.78 µM)
isolate (source animal id): 313 | 1 (≈ 2.78 µM)
isolate (source animal id): 315 | 1 (≈ 2.78 µM)
isolate (source animal id): 316 | 1 (≈ 2.78 µM)

CS(=O)(=O)c1ccc([C@@H](O)[C@@H](CF)NC(=O)C(Cl)Cl)cc1 [Florfenicol]
Conditions | minimum inhibitory concentration [µg/mL]
isolate (source animal id): 10 | 8 (≈ 22.3 µM)
isolate (source animal id): 11 | 8 (≈ 22.3 µM)
isolate (source animal id): 12 | 8 (≈ 22.3 µM)
isolate (source animal id): 19 | 8 (≈ 22.3 µM)
isolate (source animal id): 23 | 8 (≈ 22.3 µM)
isolate (source animal id): 26 | 8 (≈ 22.3 µM)
isolate (source animal id): 98 | 8 (≈ 22.3 µM)
isolate (source animal id): 104 | 0.5 (≈ 1.4 µM)
isolate (source animal id): 115 | 8 (≈ 22.3 µM)
isolate (source animal id): 117 | 0.5 (≈ 1.4 µM)
isolate (source animal id): 118 | 8 (≈ 22.3 µM)
isolate (source animal id): 121 | 8 (≈ 22.3 µM)
isolate (source animal id): 124 | 1 (≈ 2.79 µM)
isolate (source animal id): 125 | 8 (≈ 22.3 µM)
isolate (source animal id): 128 | 8 (≈ 22.3 µM)
isolate (source animal id): 131 | > 8
isolate (source animal id): 135 | > 8
isolate (source animal id): 136 | 8 (≈ 22.3 µM)
isolate (source animal id): 140 | 0.5 (≈ 1.4 µM)
isolate (source animal id): 144 | 8 (≈ 22.3 µM)
isolate (source animal id): 146 | 8 (≈ 22.3 µM)
isolate (source animal id): 150 | 8 (≈ 22.3 µM)
isolate (source animal id): 151 | 8 (≈ 22.3 µM)
isolate (source animal id): 153 | 8 (≈ 22.3 µM)
isolate (source animal id): 155 | 0.5 (≈ 1.4 µM)
isolate (source animal id): 157 | 8 (≈ 22.3 µM)
isolate (source animal id): 160 | 8 (≈ 22.3 µM)
isolate (source animal id): 164 | 8 (≈ 22.3 µM)
isolate (source animal id): 165 | 8 (≈ 22.3 µM)
isolate (source animal id): 167 | 0.5 (≈ 1.4 µM)
isolate (source animal id): 168 | 1 (≈ 2.79 µM)
isolate (source animal id): 169 | 0.5 (≈ 1.4 µM)
isolate (source animal id): 170 | > 8
isolate (source animal id): 171 | 0.5 (≈ 1.4 µM)
isolate (source animal id): 172 | 0.5 (≈ 1.4 µM)
isolate (source animal id): 173 | 1 (≈ 2.79 µM)
isolate (source animal id): 174 | 0.5 (≈ 1.4 µM)
isolate (source animal id): 175 | 0.5 (≈ 1.4 µM)
isolate (source animal id): 176 | 0.5 (≈ 1.4 µM)
isolate (source animal id): 177 | 0.5 (≈ 1.4 µM)
isolate (source animal id): 178 | 0.5 (≈ 1.4 µM)
isolate (source animal id): 179 | 0.5 (≈ 1.4 µM)
isolate (source animal id): 182 | 0.5 (≈ 1.4 µM)
isolate (source animal id): 192 | 0.5 (≈ 1.4 µM)
isolate (source animal id): 193 | 0.5 (≈ 1.4 µM)
isolate (source animal id): 195 | 0.5 (≈ 1.4 µM)
isolate (source animal id): 196 | 0.5 (≈ 1.4 µM)
isolate (source animal id): 197 | 0.5 (≈ 1.4 µM)
isolate (source animal id): 198 | 1 (≈ 2.79 µM)
isolate (source animal id): 199 | 0.5 (≈ 1.4 µM)
isolate (source animal id): 200 | 0.5 (≈ 1.4 µM)
isolate (source animal id): 201 | 0.5 (≈ 1.4 µM)
isolate (source animal id): 203 | 0.5 (≈ 1.4 µM)
isolate (source animal id): 204 | 0.5 (≈ 1.4 µM)
isolate (source animal id): 205 | 1 (≈ 2.79 µM)
isolate (source animal id): 206 | 0.5 (≈ 1.4 µM)
isolate (source animal id): 207 | 0.5 (≈ 1.4 µM)
isolate (source animal id): 208 | 0.5 (≈ 1.4 µM)
isolate (source animal id): 209 | 0.5 (≈ 1.4 µM)
isolate (source animal id): 210 | 1 (≈ 2.79 µM)
isolate (source animal id): 213 | 0.5 (≈ 1.4 µM)
isolate (source animal id): 216 | 0.5 (≈ 1.4 µM)
isolate (source animal id): 223 | 1 (≈ 2.79 µM)
isolate (source animal id): 227 | 0.5 (≈ 1.4 µM)
isolate (source animal id): 229 | 8 (≈ 22.3 µM)
isolate (source animal id): 233 | 0.5 (≈ 1.4 µM)
isolate (source animal id): 234 | 8 (≈ 22.3 µM)
isolate (source animal id): 237 | 8 (≈ 22.3 µM)
isolate (source animal id): 241 | 8 (≈ 22.3 µM)
isolate (source animal id): 245 | 0.5 (≈ 1.4 µM)
isolate (source animal id): 247 | 0.5 (≈ 1.4 µM)
isolate (source animal id): 250 | 8 (≈ 22.3 µM)
isolate (source animal id): 254 | > 8
isolate (source animal id): 255 | 4 (≈ 11.2 µM)
isolate (source animal id): 258 | 0.5 (≈ 1.4 µM)
isolate (source animal id): 261 | 8 (≈ 22.3 µM)
isolate (source animal id): 262 | > 8
isolate (source animal id): 269 | 0.5 (≈ 1.4 µM)
isolate (source animal id): 270 | 8 (≈ 22.3 µM)
isolate (source animal id): 274 | > 8
isolate (source animal id): 275 | > 8
isolate (source animal id): 276 | 0.5 (≈ 1.4 µM)
isolate (source animal id): 277 | 0.5 (≈ 1.4 µM)
isolate (source animal id): 278 | > 8
isolate (source animal id): 279 | 1 (≈ 2.79 µM)
isolate (source animal id): 280 | 0.5 (≈ 1.4 µM)
isolate (source animal id): 284 | 8 (≈ 22.3 µM)
isolate (source animal id): 285 | > 8
isolate (source animal id): 287 | > 8
isolate (source animal id): 290 | > 8
isolate (source animal id): 294 | > 8
isolate (source animal id): 295 | 8 (≈ 22.3 µM)
isolate (source animal id): 296 | 0.5 (≈ 1.4 µM)
isolate (source animal id): 307 | > 8
isolate (source animal id): 310 | > 8
isolate (source animal id): 311 | 8 (≈ 22.3 µM)
isolate (source animal id): 312 | 8 (≈ 22.3 µM)
isolate (source animal id): 313 | > 8
isolate (source animal id): 315 | > 8
isolate (source animal id): 316 | > 8
